Measured values reported in patent US5652222A, “Selective inhibition of leukemic cell proliferation by bcr-abl antisense oligonucleotides” (Temple University-of The Commonwealth System of Higher …, priority 1993, dated 1997).

How the values were obtained:
[1] = test system: Philadelphia chromosome-positive blast cells of CML patients in blast crisis, L-6 (b2a2) type junction; experiment: Colony formation of CML blast crisis patient cells expressing the b2a2 (L-6) junction; assay type: cell-based, human; conditions: for Number of Colonies, Antisense-treated: 40 μg/ml at start, 20 μg/ml 18 h later; for % Inhibition: number of colonies vs untreated
Experimental: Leukemia cells were obtained from the marrow of the posterior iliac crest of five CML patients in blast crisis. The cells were diluted 1:2 in Iscove's modified Dulbecco medium (IMDM) to form a cell suspension. Philadelphia chromosome-positive blast cells were isolated by Ficoll-Hypaque density gradient sedimentation to remove non-mononuclear cells. Accordingly, the bone marrow cell suspension was gently overlayed on a Histopaque density gradient (Sigma Chemical Co., St. Louis, Mo.) in a 2:1 ratio, and then spun down for 30 min. at 1500 rpm and 18° C. Cells remaining in the interface layer after centrifugation were collected using a Pasteur pipet, and washed with IMDM at 1000 rpm and […] for 10 min.
Cells plated into methyl cellulose semisolid media after 7-11 days of culture were recovered from the medium. Total RNA was isolated according to the procedure of Chomczynski et al, Anal. Biochem. 162, 156-159 (1987). The RNA ([…]) isolated from one patient having particularly exuberant cell growth was annealed with the 3' RT-PCR primer GCTTCACACC ATTCCCCATTGT (SEQ ID NO:10) complementary to 22 nucleotides of c-abl exon 2 for 30 minutes at 37° C. Following annealing of the 3' primer, the RNA was reverse transcribed with 500 units of Moloney murine leukemia virus reverse transcriptase at 37° C. for 1 hour. The reaction was stopped and the mixture diluted in 1 x Thermus aquaticus (Taq) polymerase buffer. A 5' primer, the 22 nucleotide oligomer CACAGCATTCCGCTGACCATCA (SEQ ID NO: 11) complementary to bcr exon 2 and additional c-abl exon 2 3' primer were added to a final concentration of 2 ng/μl each with 2.5 units of Taq polymerase for amplification of the cDNA fragments. Sixty cycles of PCR were performed in a Perkin Elmer Thermal Cycler by annealing at 55° C., synthesizing at 72° C. and denaturing at 95° C. The amplification product, corresponding to the b2a2 junction, was thereafter separated on a 2% agarose gel. The band containing the bcr-abl fragment was cut out and cleaned according to a standard technique utilizing a GENE-CLEAN™ kit (Bio 101, Inc.), cloned by blunt end ligation in the BLUESCRIPT SK vector (Stratagene Cloning Systems) linearized by SMA I digestion. Several individual clones were then sequenced using the SEQUENASE™ version 2.0 enzyme (United States Biochemical Corp., Cleveland, Ohio), according to the sequence protocol recommended by the manufacturer. Accordingly, the denatured bcr-abl DNA fragments were annealed with specific primers which flank the cloning site in the BLUESCRIPT SK vector, in the presence of SEQUENASE™ reaction buffer for 15 min. at 37° C. The primer-annealed fragments were incubated at room temperature with SEQUENASE™ version 2.0 enzyme and α-S^35 dAT at 37° C. Subsequently, labelled template-primer complexes were transferred to tubes containing A, T, C and G nucleotides (one nucleotide per tube) and incubated 5-30 min. at 37° C. The samples were then loaded on a previously prepared acrylamide gel, and run for approximately 10 hours. The sequencing gel was dryed, and the film exposed O/N. Sequence analysis of several of the individual clones identified the bcr-abl junction as having the cDNA sequence shown in FIG. 1 (SEQ ID NO:1). The arrow in the figure indicates the bcr-abl breakpoint junction, and the box delineates the 18 nucleotides corresponding to the junction, which forms a preferred target sequence for hybridization of antisense oligomer. The junction corresponds precisely to the L-6 type breakpoint reported by Shtivelman et al., Cell 47, 277 (1986), in which the bcr exon 2 is fused to c-abl exon 2.
In a similar manner, L-6 type junctions were identified in the remaining CML blast crisis patients by hybridization of RT-PCR amplification products derived from blast crisis CML RNA using a synthetic 18-mer GAAGGGCTTC TTCCTTAT (SEQ ID NO:3) specific for the 18-nucleotide target sequence of the L-6 bcr-abl junction. […]

[2] = test system: BV173 cells (cALL antigen (CALLA)-positive cells); experiment: Immunofluorescence / flow cytometry of CALLA-positive cells in tissues of leukemic SCID mice; assay type: in vivo, SCID mice (human leukemic cells)
Experimental: A first assay comprised an immunofluorescence analysis of cALL antigen (CALLA)-positive cells. All BV173 cells but not normal murine hematopoietic cells express this antigen (assay sensitivity=10^-2). Single cell suspensions were prepared for flow cytometry analysis from peripheral blood, spleen and bone marrow cells of the leukemic SCID mice by centrifugation on a lymphocyte-M gradient (Cedarlane Labs, Ltd., Ontario, Canada). Cells (1×10^5) were stained with the FITC-conjugated mouse anti-CALLA monoclonal antibody (Becton-Dickinson Immunocytometry Systems, San Jose, Calif.) to human CD10 antigen. After staining, cells were washed and analyzed by flow cytometry using the Epics Profile Analyzer (Coulter Electronic).
To determine whether synthetic phosphorothioate oligodeoxynucleotides targeted against the bcr-abl junction of […] cells would modify the disease process in SCID mice. SCID mice were injected with 10^6 BV173 cells. The mice then received 1 mg of sense (ATCAATAAGG AAGCCCTTCAGCG, SEQ ID NO:34) or antisense ([…] ATTGAT, SEQ ID NO:29) b2/a2 bcr-abl phosphorothioate oligodeoxynucleotides (pyrogen leven <1 Eu/mg; 0.2 ml in Iscove modified Dulbecco medium in 5-10 seconds) intravenously for each of 9 consecutive days, beginning either 7 or 21 days after introducing 10^6 BV173 cells. Control mice received the diluent (iscove's modified Dulbecco medium) only. These time points approximate distinct disease stages in humans.

[3] = 1 mg/day i.v. x9 from day +7, 26 days after last treatment (6 weeks)
[4] = from day +21, 1 mg/day x9, 26 days after treatment (8 weeks)

Substance	colonies of blast cells formed ([1]; 10 days in semi-solid culture (FIG. 2))	Number of Colonies, Antisense-treated ([1]; Table 1, patient 1, untreated 450 ± 64) [colonies]	Number of Colonies, Antisense-treated ([1]; Table 1, patient 2, untreated 324 ± 18) [colonies]	% Inhibition ([1]; Table 1, patient 3) [%]	Number of Colonies, Antisense-treated ([1]; Table 1, patient 4, untreated 212 ± 15) [colonies]	Number of Colonies, Antisense-treated ([1]; Table 1, patient 5, untreated 380 ± 16) [colonies]	% Inhibition ([1]; Table 1, patient 5) [%]	inhibition of colony formation ([1]; five L-6 type junction patients, repeated experiments) [%]	CALLA+ cells, bone marrow ([2]; 1 mg/day i.v. x9 from day +7, 12 days after last treatment (4 weeks))	CALLA+ cells, bone marrow [2, 3] [%]	CALLA+ cells, peripheral blood [2, 3] [%]	CALLA+ cells, spleen [2, 3] [%]	CALLA+ cells, peripheral blood ([2]; from day +21, 1 mg/day x9, 12 days after last treatment (6 weeks), control 1.0±0.1)	CALLA+ cells, spleen ([2]; from day +21, 1 mg/day x9, 12 days after last treatment (6 weeks), control 1.9±0.1) [%]	CALLA+ cells, bone marrow ([2]; from day +21, 1 mg/day x9, 12 days after last treatment (6 weeks), control 17.7±1.8) [%]	CALLA+ cells, bone marrow [2, 4] [%]	CALLA+ cells, peripheral blood [2, 4] [%]	CALLA+ cells, spleen [2, 4] [%]
SEQ ID NO:3: synthetic 18-mer GAAGGGCTTC TTCCTTAT specific for the 18-nucleotide target sequence of the L-6 bcr-abl junction (antisense GAAGGGCTTCTTCCTTAT; chemistry not given here)	very few colonies, with a much smaller number of cells	112 ± 18	62 ± 8	90	80 ± 8	70 ± 8	82	60 to 90	–	–	–	–	–	–	–	–	–	–
SEQ ID NO:34: phosphorothioate sense sequence ATCAATAAGGAAGCCCTTCAGCG (23-mer b2a2 sense) (sense ATCAATAAGGAAGCCCTTCAGCG; all phosphorothioate, sugars by position and methylation of C not given here)	–	–	–	–	–	–	–	–	detected in bone marrow of control and sense-treated animal	16.8±1.8	1.9±0.2	4.1±0.2	0.9±0.1	1.9±0.8	10.0±0.5	23.9±5.0	2.0±0.3	9.9±1.8
